# In patent US6649364B1, “Anti-apoptotic compositions and methods using same” (The Regents of the University of California, priority 1995, dated 2003):
# Where a SMILES comes first, the peptide text is derived from it. [ ]: non-standard residue; d: D form. The star is where a group is joined. Sta = CC(C)C[C@H](N)[C@@H](O)CC(=O)O; Isovaleryl = CC(C)CC(=O)*
# Target: T1, human recombinant ICE (Homo sapiens, UniProt P29466)
# T1 construct: highly purified human recombinant ICE (p20/p10) (Merck, Wayne, N.J.); purchased Merck, Wayne, N.J
# T1 sequence (P29466 120-297 limits assumed): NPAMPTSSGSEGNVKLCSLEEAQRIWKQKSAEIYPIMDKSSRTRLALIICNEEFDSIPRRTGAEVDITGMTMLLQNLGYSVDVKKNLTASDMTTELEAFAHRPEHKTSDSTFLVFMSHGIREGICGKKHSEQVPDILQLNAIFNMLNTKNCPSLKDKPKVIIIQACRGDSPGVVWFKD
# T1 sequence (P29466 317-404 limits assumed): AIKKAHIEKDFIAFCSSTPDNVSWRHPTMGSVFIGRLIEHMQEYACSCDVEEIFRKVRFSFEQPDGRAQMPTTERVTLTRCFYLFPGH
# Test: ICE cleavage of actin in PC12 cell extracts, with protease inhibitors (SDS-PAGE, immunoblot)
# Type: biochemical
# Details: not given
# Protocol: Cells were washed with ice-cold PBS twice and were extracted with Triton X-100® detergent (1%) in Hepes buffer (10 mM, pH=7.5). Supernatants were treated with ICE as follows: 50 μg of cellular protein extracted from semi-confluent cells grown in serum-containing media was incubated with 50 ng of highly purified human recombinant ICE (p20/p10) (Merck, Wayne, N.J.) at 37° C. for 2 hours in the presence of 10 mM dithiothreitol (DTT).
# In order to determine whether any of the cellular proteins of relatively high abundance serve as ICE substrates, extracts prepared from PC12 pheochromocytoma cells (29), CSM14.1 cells (conditionally immortalized mesencephalic neuronal cells) (30, 31), and Rat-1 cells (25) were treated with highly purified human recombinant ICE under various conditions. The cleavage products were then analyzed by SDS-polyacrylamide gel electrophoresis.
# Control was incubated in the absence of ICE.
row,Compound,inhibition of the generation of actin fragments by ICE
1,O=C(O)CI [iodoacetate],completely inhibited

# Same assay, conditions: cell extracts treated with ICE, 37° C., 2 hours
row,inhibition of the generation of actin fragments by ICE,Compound
1,not,CC(C)CC(=O)N[C@H](C(=O)N[C@H](C(=O)N[C@@H](CC(C)C)[C@@H](O)CC(=O)N[C@@H](C)C(=O)N[C@@H](CC(C)C)[C@@H](O)CC(=O)O)C(C)C)C(C)C [pepstain] (Isovaleryl-VV[Sta]A[Sta]-OH)
2,not,CC(C)C[C@H](NC(=O)[C@H]1O[C@@H]1C(=O)O)C(=O)NCCCCN=C(N)N [E-64]
3,completely inhibited,Ac-Tyr-Val-Ala-Asp-CHO
4,not,"human α2-macroglobulin: granzyme B inhibitor, shown not to inhibit ICE"

row,Compound,inhibition of the generation of actin fragments by ICE
1,O=S(=O)(F)Cc1ccccc1 [phenylmethylsulfonyl fluoride],not
2,CC(=O)N[C@@H](CC(C)C)C(=O)N[C@@H](CC(C)C)C(=O)N[C@H](C=O)CCCNC(=N)N [leupeptin],not
